“Also recorded” adds a separate entry of the source.
How the values were obtained:
[1] = test system: MPTP-lesioned squirrel monkey; experiment: MPTP-lesioned squirrel monkey Parkinsonian model; format: in vivo, squirrel monkeys
Experimental: Twenty four squirrel monkeys, fourteen females and ten males were used in a Parkinsonian model. The twenty-four animals were randomly assigned to one of four treatment groups, with 6 animals per group. The groups consisted of the following: Group A (6 animals) received placebo (water) treatment; Group B (5 animals) received drug nepicastat at 1 mg/kg/day (0.5 mg/kg twice daily); Group C (6 animals) received 4 mg/kg/day (2 mg/kg twice daily); and Group D (6 animals) received 10 mg/kg/day (5 mg/kg twice daily). In Group B, one animal died acutely following MPTP-lesioning, and was not replaced.
Prior to lesioning, animals were subjected to quantitative assessment of spontaneous motor activity using an infrared activity monitor (IRAM) cage. All recording sessions were 60 minutes in length and were carried out for 10 sessions over a period of 2 weeks. The behavior of animals was also assessed by 1 to 3 clinical raters using a parkinsonian clinical rating scale (CRS) once per day (12 noon to 1 pm) for 3 to 5 consecutive days. […] Both the activity monitoring (IRAM) and clinical rating assessments established the mean base-line activity of each animal.
Animals were lesioned by the administration of MPTP at a concentration of 2.0 mg/kg (free-base) via subcutaneous injection to achieve a parkinsonian state. A post-MPTP lesioning behavioral assessment was carried out 2 to 4 weeks after the last MPTP-lesioning. Locomotor activity was monitored by IRAM in 60-minute sessions for 3 to 5 days. Clinical behavior (CAS) was assessed by one to three individuals rating over a period of 3 to 5 days.
Animals were tested for response to L-Dopa and the efficacy of drug nepicastat. Testing was carried out 4 to 12 weeks after the last MPTP dose. L-Dopa was administered at a concentration of either 2.5, 5, or 7.5 mg/kg by oral gavage twice daily (at 10 am and 2 pm) for 7 consecutive days. Behavior was determined by IRAM and CRS. Clinical rating was carried out 60 to 90 minutes following the 10 am morning dose on the last 4 days of treatment. Raters (one to three individuals) were blinded to the different treatment groups. IRAM assessment were preformed for 90 minutes immediately following drug administration at 2 pm on the last 2 to 5 days of drug treatment. There was a minimum 2 day washout period between each treatment dose.
Nepicastat or water (as placebo) was administered for 12 days following a minimum 2 day washout after L-Dopa dosing. Drug was administered twice daily at 10 am and 2 pm by oral gavage. Behavior was rated by IRAM and CRS. The CRS was conducted in the morning, 60 to 90 minutes after the 10 am dose of nepicastat on the last 5 days of drug treatment. Raters (one to three individuals) were blinded to the different treatment groups. IRAM assessments were preformed for 90 minutes immediately following drug administration at 2 pm on the last 5 days of drug treatment.
Eight parkinsonian features were rated in each animal and the total score was derived from the sum of these eight features. For each animal, a single clinical rating score was obtained for each drug dose by averaging the clinical rating scores of all raters (one to three) conducted over the consecutive multiple dosing (with the same dose) days. This average CRS was used for statistical analysis. A lower score was considered a less parkinsonian behavioral state.
Statistical analysis consisted of: (1) comparisons between the average CRS of placebo to nepicastat at 1, 4, and 10 mg/kg/day using the Kruskal-Wallis (non-parametric analysis of variance). This comparison was repeated using the average CRS for each experimental drug concentration corrected by the final post-MPTP ratings for each animal. The corrected clinical scores are clinical scores of experimental drug at each concentration as a ratio of post-MPTP clinical scores. […]

[2] = test system: spontaneous hypertensive rats; experiment: SCH-23390 pretreatment study in restrained SHRs; format: in vivo; conditions: SCH-23390 iv, post-iv period
Source text: Male, spontaneous hypertensive rats (280-345 g; Charles River Labs, Kingston, N.Y.) were fasted overnight then anesthetized with ether. A femoral artery and femoral vein were cannulated with PE50 tubing for recording of blood pressure and administration of compounds, respectively. Animals were then placed in MAYO restrainers and their feet loosely taped to the restrainer. Heparinized saline (50 units sodium heparin/ml) was used to maintain patency of each cannula throughout the experiment. The following parameters were continuously recorded using Modular Instruments MI^2 BioReport™ software installed on an IBM personal computer: mean arterial pressure (MAP), heart rate (HR), and the change from baseline for each parameter at specified time points in the experiment.
All compounds were dissolved on the day of use. Nepicastat was dissolved in deionized water (vehicle) to a free base concentration of 1 mg/ml. Oral dosing volume for nepicastat or vehicle was 10 ml/kg. SCH-23390 was dissolved in saline (vehicle) to a free base concentration of 0.2 mg/ml. […] or saline were administered intravenously as a bolus in a volume of 1.0 ml/kg followed by 0.2 ml flush of isotonic saline.
Following surgical preparation, each animal was allowed a minimum one hour recovery period. Animals were randomly assigned to four treatment groups: vehicle (iv)/vehicle (po); vehicle (iv)/nepicastat (po); SCH-23390 (iv)/vehicle (po); or SCH-23390 (iv)/nepicastat (po). Once animals were stabilized (minimum one hour), baseline blood pressure and heart rate was determined by taking an average of each parameter over a 15 min period of time. Once baseline blood pressure and heart rate were established, animals were dosed intravenously with either SCH-23390 (200 μg/kg) or vehicle (saline, 1 ml/kg). Fifteen minutes later, animals were orally dosed with either nepicastat (10 mg/kg) or vehicle (deionized water, 10 ml/kg).
Recorded parameters were measured 15 min prior to intravenous dosing to establish baseline blood pressure and heart rate. Recorded parameters were then measured at 5, 10, and 15 min following intravenous administration of SCH-23390 or vehicle. Following oral administration of nepicastat or vehicle, recorded parameters were measured at 15, 30, 60, 90, 120, 150, 180, 210, and 240 min.
At the end of the experiment, each animal was anesthetized with halothane and euthanized via decapitation. The cortex, left ventricle (apex), and mesenteric artery were dissected out, weighed, and fixed in 0.4 M perchloric acid. Tissues were then frozen in liquid nitrogen and stored at −70° C. Biochemical analysis are performed on these tissues at a later date to determine catecholamine levels including dopamine and norepinephrine levels. Blood pressure and heart rate were analyzed separately. The change from baseline for blood pressure and heart rate were analyzed by an analysis of variance (ANOVA) with effects for treatment, time, and their interaction. This analysis was performed both for the post-iv time period and for the post-oral time period. Further analyses were performed at each time by an ANOVA with a main effect for […]. Pairwise comparisons were performed following each ANOVA by Fisher's LSD strategy with a Bonferroni correction when the overall treatment effect was not significant.
An additional analysis was performed to compare the baseline means of each treatment group by an ANOVA with a main effect for treatment and subsequent pairwise comparisons. […]

Sprague Dawley rats = experiment: Locomotor activity and acoustic startle reactivity in rats, acute; format: in vivo; conditions: nepicastat 3-100 mg/kg, SKF-102698 100 mg/kg, clonidine 40 μg/kg
Source text: Rats were housed under a normal light/dark cycle with lights on between 0900 Hrs. and 2100 Hrs. Animals were housed in pairs in standard metal wire cages, and food and water were allowed ad libitum. The locomotor activity boxes consisted of a Plexiglas box measuring 18''×18'' by 12'' high. Surrounding the Plexiglas® boxes were Omnitech Digiscan Monitors (model # RXXCM 16) which consisted of a one inch ban of photobeams and photosensors numbering 32 per box. The number of photobeam breaks were analyzed by an Omnitech Digiscan Analyzer (model # DCM-8). […] A piezoelectric accelerometer transforms the subject's movement into an arbitrary voltage on a scale of 0 to 4095. […] The average startle was calculated for each rat by taking the mean of startle number 11 through 45 (the first ten startles will be disregarded). Sixty-four of these rats were then placed in one of eight treatment groups such that each group had similar mean startle values. The eight treatment groups were as follows: […] […] The rats motor activity was monitored for four hours. […] To evaluate motor activity, horizontal activity (number of photobeams broken), number of movements, and rest time were measured. Each parameter was analyzed separately. […] The startle responses were analyzed using analysis of covariance. […] Therefore, the startle responses were analyzed by time. […]

rats = experiment: Chronic (10 day) dosing behavioral tests in rats; conditions: rat, in vivo
Experimental: The effects of chronic dosing of nepicastat in rats were examined. Between three and thirteen days prior to the first dosing day the rats were placed inside the startle apparatus and after a five minute acclimation period they were presented with a 118 dB noise burst on average once a minute (a variable inter-trial interval ranging between 30 and 90 seconds will be used) for 20 minutes. The startle responses were measured and a mean for the last twenty startle response was calculated for each rat.
The following behavioral tests were administered during and after chronic dosing; body core temperature, motor activity, acoustic startle reactivity, and pre-pulse inhibition of acoustic startle.
The animals were tested in an enclosed room with a white noise generator running Motor activity tests were conducted immediately after the body core temperature reading taken on dosing day ten (about 3 hours and 35 minutes after the morning daily dose of nepicastat, and SKF-102698, and 20 minutes prior to the daily administration of clonidine and d-amphetamine on dosing day ten). Motor activity tests were run for one hour. A diagnostic program was run on each of the motor activity chambers prior to each test session to assure that the photo beams and light sensors were operating properly. […] D-amphetamine was used as the positive control for this assay.
Rat body core temperatures were obtained by inserting the rectal probe 2 cm into the colon of each rat. Each rat's body core temperature was measured three times and the average of the three reading was calculated. Body core temperature readings were obtained immediately prior to the ten day chronic dosing schedule (to obtain a baseline), and three and half hour after the morning daily dose of nepicastat, and SKF-102698, and 15 minutes prior to the daily administration of clonidine and d-amphetamine, on dosing days one, five and ten. […] Both clonidine (an alpha2 agonist), and d-amphetamine (a dopamine releaser) were used as the positive controls for this assay.
Acoustic startle reactivity (a series of muscle contractions elicited by an intense burst of noise with a rapid onset), and pre-pulse inhibition (sensorimotor gating measured by analyzing any decrease in startle reactivity which occurs when a startling stimulus is immediately preceded by a non startling stimulus) were both measured in eight SR-Lab (San Diego Instruments, San Diego, Calif.) test stations. The rats were placed individually in a Plexiglas cylinder (10 cm diameter) which was housed in a ventilated sound-attenuating enclosure. Acoustic noise bursts (a broad band noise with a rise time and fall time of 1 msec) were presented via a speaker mounted 30 cm above the animal. Also, these speakers produced a 68 dB level of background noise throughout all test sessions. A piezoelectric accelerometer attached below the plexiglass cylinder transduced the subject's movement into a voltage which was then rectified and digitized (on a scale from 0 to 4095) by a PC computer equipped with SR-Lab software and interface assembly. A decibel meter was used to calibrate the speakers in each of the eight test station to ±1% of the mean. Additionally, a SR-Lab calibrating instrument was used to calibrate each of the eight startle detection apparatuses to ±2% of the mean. Startle reactivity and pre-pulse inhibition tests were run concurrently immediately alter the motor activity test (about 4 hours and 40 minutes after the morning daily injection of nepicastat, and SKF-102698, and 10 minutes after a supplemental administration of clonidine and d-amphetamine on dosing day ten).

normotensive Wistar rats = experiment: 7 day radio-telemetry study in normotensive Wistar rats; conditions: hydralazine 10 mg/kg
Experimental: Male Crl:COBS(WI)BR rats of 15 weeks old were used.
Both nepicastat and hydralazine were prepared in water with traces of Tween 80. All doses were given orally to the rat in 10 ml/kg and were expressed as free base equivalents.
All values were expressed as means±SEM. Statistical significance was defined as a p level of less than 0.05.
Body weights were recorded daily.

Structure (SMILES): N[C@@H](Cc1ccc(O)c(O)c1)C(=O)O [L-Dopa, reference compound]
- parkinsonian clinical rating vs post-MPTP ([1]; L-Dopa 2.5 mg/kg): No groups of animals demonstrated significant improvement; also recorded: no significant effect
- parkinsonian clinical rating vs post-MPTP (pre-treatment) ([1]; L-Dopa 5 and 7.5 mg/kg, except Group C at 7.5 and Group B at 5 mg/kg): significant improvement; also recorded: significant effect

Structure (SMILES): CN1CCc2cc(Cl)c(O)cc2[C@@H](c2ccccc2)C1 [SCH-23390, reference compound]
- decrease in mean arterial pressure [2]: 5±1 mmHg

Structure (SMILES): Clc1cccc(Cl)c1N=C1NCCN1 [clonidine]
- locomotor activity (horizontal activity, movements, rest time) vs vehicle (Sprague Dawley rats): significantly more horizontal activities at 2 and 2.5 hours
- maximum and average acoustic startle response vs vehicle (Sprague Dawley rats): statistically significantly lower maximum and average startle responses
- body core temperature (rats): significantly increasing body core temperature on day one
- pre-pulse inhibition (rats): just significantly higher percent prepulse inhibition

Structure (SMILES): NNc1nncc2ccccc12 [hydralazine]
- heart rate (normotensive Wistar rats): varying degrees of tachycardia
- time in which the hypotensive effect subsided (normotensive Wistar rats): 10 h
- maximal decrease in MBP (normotensive Wistar rats; within 1 hr after dosing on day 1): −24 mmHg
